Experimental data published in patent EP4656642A1, “ESTROGEN RECEPTOR PROTEOLYSIS TARGETING CHIMERA COMPOUND AND USE THEREOF” (GAN & LEE PHARM CO., LTD, priority 2023, dated 2024).

How the values were obtained:
Format in all cases: cell-based
T-47D cells = experiment: Inhibition of cell proliferation in T-47D cells (CCK-8, 6 days); details: 6 days of treatment, Table 3
Summary of the method: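 Viability read-out was CCK-8 after 6 days of compound treatment (37 °C, 5% CO2) across graded concentrations. Cells were T-47D seeded at 3,000 per well in 1640 medium plus 10% FBS. IC50 was calculated against proliferation.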

MCF-7 cells = experiment: Inhibition of cell proliferation of MCF-7 cells (CCK-8, 9 days); details: treated for 9 days, CCK-8 kit (Table 6)
Summary of the method: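 Read-out was CCK-8 viability after 9-day continuous exposure (37°C, 5% CO2) of MCF-7 cells plated at 800/well in 10% FBS DMEM across several compound concentrations. Values are proliferation IC50s.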

ERα [1] = biological target: T1, ERα (Homo sapiens, UniProt P03372); experiment: Degradation of ERα in MCF-7 cells (immunoblotting, 4 h)
T1 sequence (P03372 1-595): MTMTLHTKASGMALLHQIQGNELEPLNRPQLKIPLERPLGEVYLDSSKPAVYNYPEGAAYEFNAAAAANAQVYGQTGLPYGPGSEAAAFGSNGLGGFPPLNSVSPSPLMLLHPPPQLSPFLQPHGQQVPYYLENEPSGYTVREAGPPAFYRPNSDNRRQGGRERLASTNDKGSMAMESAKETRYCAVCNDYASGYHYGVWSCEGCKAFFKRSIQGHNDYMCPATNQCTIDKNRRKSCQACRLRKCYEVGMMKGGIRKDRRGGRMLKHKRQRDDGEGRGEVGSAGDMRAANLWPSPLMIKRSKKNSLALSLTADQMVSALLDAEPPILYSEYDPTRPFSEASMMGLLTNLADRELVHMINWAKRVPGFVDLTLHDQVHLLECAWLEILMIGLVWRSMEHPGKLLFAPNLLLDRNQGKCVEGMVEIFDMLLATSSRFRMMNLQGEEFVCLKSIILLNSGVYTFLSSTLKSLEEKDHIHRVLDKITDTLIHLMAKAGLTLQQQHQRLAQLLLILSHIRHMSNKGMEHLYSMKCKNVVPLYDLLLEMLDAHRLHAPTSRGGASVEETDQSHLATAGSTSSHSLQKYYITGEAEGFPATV
Summary of the method: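 Degradation rate reflects ERα band intensity, corrected to an internal reference protein, relative to control. Values come from Western blotting of lysates from MCF-7 cells exposed 4 h at 37°C to compounds at final concentrations of 0.15-1000nM.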

ERα [2] = biological target: T1, ERα; experiment: Degradation of ERα in T-47D cells (immunoblotting, 4 h); parameters: host or cells: T-47D
Summary of the method: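 ERα protein levels were assessed by immunoblot of RIPA lysates (with protease inhibitor) after 4 h exposure at 37°C. Compound was added in DMSO to T-47D cells at final concentrations of 0.15-1000 nM.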

| Compound | IC50 (T-47D cells) [nM] | IC50 (MCF-7 cells) [nM] | Degradation rate (%) of ERα in MCF-7 cells (ERα [1]; 1nM compound) [%] | Degradation rate (%) of ERα in MCF-7 cells (ERα [1]; 10nM compound) [%] | Degradation rate (%) of ERα in T-47D cells (ERα [2]; 1nM compound) [%] | Degradation rate (%) of ERα in T-47D cells (ERα [2]; 10nM compound) [%] |
| --- | --- | --- | --- | --- | --- | --- |
| C[C@@H]1C[C@H](N2CCC3(CC2)COc2c3ccc3c2CN(C2CCC(=O)NC2=O)C3=O)CCN1C1CC2(CCN(c3ccc([C@@H]4c5ccc(O)cc5CC[C@@H]4c4ccccc4)cc3)CC2)C1 (stereo partly drawn) [H30] | 5.78 | 0.115 | -1 | 62 | 37 | 74 |
| COC(=O)[C@@H]1C[C@H](N2CCC3(CC2)COc2c3ccc3c2CN(C2CCC(=O)NC2=O)C3=O)CCN1C1CC2(CCN(c3ccc([C@@H]4c5ccc(O)cc5CC[C@@H]4c4ccccc4)cc3)CC2)C1 (stereo partly drawn) [H31] | 1.8 | 43.3 | 46 | 83 | 55 | 85 |
| COC(=O)[C@@H]1C[C@H](N2CCC3(CC2)COc2c3ccc3c2CN(C2CCC(=O)NC2=O)C3=O)CCN1C1CCN(c2ccc([C@@H]3c4ccc(O)cc4CC[C@@H]3c3ccccc3)cc2)CC1 (stereo partly drawn) [H32] | 1.44 | 4020 | 35 | 58 | 52 | 77 |
| O=C1CCC(N2Cc3c(ccc4c3OCC43CCN(C4CCN(C5CC6(CCN(c7ccc([C@@H]8c9ccc(O)cc9CC[C@@H]8c8ccccc8)cc7)CC6)C5)CC4F)CC3)C2=O)C(=O)N1 (stereo partly drawn) [H33] | 1.37 | 12.5 | 32 | 76 | 27 | 72 |
| O=C1CCC(N2Cc3c(ccc4c3OCC43CCN(C4CCN(C5CCN(c6ccc([C@@H]7c8ccc(O)cc8CC[C@@H]7c7ccccc7)cc6)CC5)CC4F)CC3)C2=O)C(=O)N1 (stereo partly drawn) [H34] | 1.33 | 10.9 | 42 | 65 | 30 | 77 |
| O=C1CCC(N2Cc3c(ccc4c3OCC43CCN([C@H]4CCN(C5CC6(CCN(c7ccc([C@@H]8c9ccc(O)cc9CC[C@@H]8c8ccccc8)cc7)CC6)C5)C[C@H]4F)CC3)C2=O)C(=O)N1 (stereo partly drawn) [H36] | 1.06 | 72.4 | 24 | 70 | 21 | 75 |
| CNC(=O)[C@@H]1CC(N2CCC3(CC2)COc2c3ccc3c2CN(C2CCC(=O)NC2=O)C3=O)CCN1C1CC2(CCN(c3ccc([C@@H]4c5ccc(O)cc5CC[C@@H]4c4ccccc4)cc3)CC2)C1 (stereo partly drawn) [H38] | 2.58 | 31.8 | 49 | 71 | 34 | 75 |
| C[C@H]1CN(C2CC3(CCN(c4ccc([C@@H]5c6ccc(O)cc6CC[C@@H]5c5ccccc5)cc4)CC3)C2)CC[C@H]1N1CCC2(CC1)COc1c2ccc2c1CN(C1CCC(=O)NC1=O)C2=O (stereo partly drawn) [H39] | 3.38 | 65.2 | 20 | 71 | 15 | 64 |
| CCNC(=O)[C@@H]1CC(N2CCC3(CC2)COc2c3ccc3c2CN(C2CCC(=O)NC2=O)C3=O)CCN1C1CC2(CCN(c3ccc([C@@H]4c5ccc(O)cc5CC[C@@H]4c4ccccc4)cc3)CC2)C1 (stereo partly drawn) [H40] | 1.42 | 57.9 | 69 | 84 | 56 | 86 |
| O=C1CCC(N2Cc3c(ccc4c3OCC43CCN(C4CCN(C5CC6(CCN(c7ccc([C@@H]8c9ccc(O)cc9CC[C@@H]8c8ccccc8)cc7)CC6)C5)[C@H](C(=O)NC5CC5)C4)CC3)C2=O)C(=O)N1 (stereo partly drawn) [H41] | 1.88 | 5.05 | 63 | 80 | 59 | 83 |
| O=C1CCC(N2Cc3c(ccc4c3OCC43CCN(C4CCN(C(=O)C5CCN(c6ccc([C@@H]7c8ccc(O)cc8CC[C@@H]7c7ccccc7)cc6)CC5)CC4F)CC3)C2=O)C(=O)N1 (stereo partly drawn) [H42] | 1.32 | 9.28 | 49 | 77 | 37 | 73 |
| O=C1CCC(N2Cc3c(ccc4c3OCC43CCN(C4CCN(C5CC6(CCN(c7ccc([C@@H]8c9ccc(O)cc9CC[C@@H]8c8ccccc8)cc7)CC6)C5)[C@H](C(=O)NC5CCCC5)C4)CC3)C2=O)C(=O)N1 (stereo partly drawn) [H44] | 3.74 | 5.06 | 36 | 73 | 53 | 85 |
| O=C1CCC(N2Cc3c(ccc4c3OCC43CCN(C4CCN(C(=O)C5CCN(c6ccc([C@@H]7c8ccc(O)cc8CC[C@@H]7c7ccccc7)cc6)CC5)[C@H](C(=O)N5CCC5)C4)CC3)C2=O)C(=O)N1 (stereo partly drawn) [H45] | 1.47 | 16.2 | 25 | 61 | 58 | 78 |
| CN(C(=O)CN1CCC2(CC1)COc1c2ccc2c1CN(C1CCC(=O)NC1=O)C2=O)C1CCC2(CC1)CCN(c1ccc([C@@H]3c4ccc(O)cc4CC[C@@H]3c3ccccc3)cc1)CC2 (stereo partly drawn) [H50] | 3.59 | 9560 | 32 | 71 | 11 | 63 |
| C[C@@H]1Cc2c(ccc3[nH]ncc23)C(c2ccc(N3CCC(N4CC[C@@H](N5CCC6(CC5)COc5c6ccc6c5CN(C5CCC(=O)NC5=O)C6=O)[C@@H](F)C4)CC3)cn2)N1CC(F)(F)F (stereo partly drawn) [H57] | 26.9 | 7370 | 38 | 60 | 38 | 71 |

Further lines, results first:

| IC50 (T-47D cells) [nM] | IC50 (MCF-7 cells) [nM] | Degradation rate (%) of ERα in MCF-7 cells (ERα [1]; 1nM compound) [%] | Degradation rate (%) of ERα in MCF-7 cells (ERα [1]; 10nM compound) [%] | Degradation rate (%) of ERα in T-47D cells (ERα [2]; 1nM compound) [%] | Degradation rate (%) of ERα in T-47D cells (ERα [2]; 10nM compound) [%] | Compound |
| --- | --- | --- | --- | --- | --- | --- |
| 12.7 | 119 | 39 | 54 | 41 | 62 | C[C@@H]1Cc2cc(O)ccc2[C@@H](c2c(F)cc(N3CC4(CCC(N5CCC6(CC5)COc5c6ccc6c5CN(C5CCC(=O)NC5=O)C6=O)CC4)C3)cc2F)N1CC(F)(F)F (stereo partly drawn) [I4] |
| 16.7 | 857 | 9 | -14 | -6 | -10 | O=C1CCC(N2Cc3cc4c(cc3C2=O)OCC42CCN(CC3CCN(c4ccc([C@@H]5c6ccc(O)cc6CC[C@@H]5c5ccccc5)cc4)CC3)CC2)C(=O)N1 (stereo partly drawn) [J1] |
| 1.1 | 1940 | 60 | 53 | 68 | 86 | CCN(CC(=O)N1CCC2(CC1)COc1c2ccc2c1CN(C1CCC(=O)NC1=O)C2=O)CC1CCN(c2ccc([C@@H]3c4ccc(O)cc4CC[C@@H]3c3ccccc3)cc2)CC1 (stereo partly drawn) [J12] |
| 3.49 | 22000 | 33 | 66 | 49 | 80 | C[C@@H]1Cc2c(ccc3[nH]ncc23)C(c2ccc(N3CCC4(CCN(C(=O)CN5CCC6(CC5)COc5c6ccc6c5CN(C5CCC(=O)NC5=O)C6=O)CC4)CC3)cn2)N1CC(F)(F)F (stereo partly drawn) [J15] |
| 1.58 | 2250 | 17 | 47 | 35 | 68 | O=C1CCC(N2Cc3c(ccc4c3OCC43CCN(C(=O)CN(CC4CC4)CC4CCN(c5ccc([C@@H]6c7ccc(O)cc7CC[C@@H]6c6ccccc6)cc5)CC4)CC3)C2=O)C(=O)N1 (stereo partly drawn) [J16] |
